Laboratory results: US10653672B2, “Myogenesis promotor, muscle atrophy inhibitor, medical composition and TAZ activator” (National University Corporation Tokyo Medical and Dental …, priority 2014, dated 2020)
Where “and” joins values, the source holds several entries; their conditions need not be identical. Identical values can stand only once.

Tests used:
[1] = tested on: connective tissue growth factor (CTGF); experiment: Quantitative real-time PCR, CTGF; type: cell-based, mouse; details: C2C12 cells, 10 μM; for Normarized mRNA abundance, CTGF: listed as IBS008738
Method: (§1) (1) Quantitative real-time PCR was performed with C2C12 cells immediately before the induction of muscle formation (0 h), and after culturing under differentiation condition in a culture medium added with IBS008738 or DMSO at a concentration of 10 μM for 24 hours (24 h) and 72 hours (72 h), respectively. […] The line and error bar indicate the average value and the standard error, **p<0.05, and ns refers to not significant.
(2) Evaluation was also performed under the same condition on the connective tissue growth factor (CTGF) and cyclin D1, as TAZ targets in epidermal cells.
(§2) The quantitative real-time PCR was performed with SYBER Green (Roche) and ABI7500 Realtime PCR system (Applied Biosystems).

M-cadherin = experiment: Quantitative real-time PCR, M-cadherin; type: cell-based, mouse; details: C2C12 cells, 10 μM; for Normarized mRNA abundance, M-cadherin: listed as IBS008738
Method: as §1
Evaluation was also performed under the same condition on M-cadherin, calpain 1 and caveolin 3, which are myofusion markers. As a result, there was no increase in the degree of gene transcription in the case with IBS008738.
as §2

[2] = target: T1, interaction of TAZ and MyoD (Homo sapiens, UniProt Q9GZV5); experiment: Immunoprecipitation of FLAG-TAZ and HA-MyoD in HEK 293 cells; type: cell-based; details: HEK 293 expressing FLAG-TAZ and HA-MyoD
T1 construct: expressed in transfected cells; host or cells: HEK 293 (human embryonic kidney cells)
Method: (2) For analyzing the effects of IBS008738 on the interaction of TAZ and MyoD, immunoprecipitation was performed on human embryonic kidney cells (HEK 293) expressing FLAG-TAZ and HA-MyoD, with anti-FLAF M2 beads.

C2C12 cells = experiment: Antagonistic action on myostatin in C2C12 cells; type: cell-based, mouse; details: TAZ knocked down (si TAZ); with myostatin; differentiation condition 72 hours
Description: Myostatin is a protein and a member of a transforming growth factor […] superfamily, and inhibits muscle growth and differentiation. Myostatin binds activin type IIB receptor and triggers SMAD2/3-dependent signaling. Since TAZ interacts with SMAD2/3, effects of IBS008738 on the signaling of myostatin was examined (FIGS. 8A to 8C). The line in the figures is 100 μm. The line and the error bar indicate the average value and the standard error, *p<0.05, […], ***p<0.001, ns refers to not significant.
(1) C2C12 cells in which TAZ was knocked down (si TAZ) and C2C12 cells in which TAZ was not knocked down (si Cont) were grown to confluence, respectively, A stock solution of 100 μg/mL myostatin in 4 mM […] with 0.1% (w/v) BSA and a stock solution of 10 mM IBS008738 in DMSO were prepared. The cells were cultured at differentiation condition for 72 hours in a 1 mL medium with 1 μL DMSO, a 1 mL medium with 1 μL myostatin stock solution, and a 1 mL medium with 1 μL IBS008738 stock solution. As a result, muscle formation of the C2C12 cells was inhibited in the case with only myostatin, but muscle formation of the C2C12 cells was recovered in the case with myostatin and IBS008738.
(2) The fusion index of C2C12 cells in which TAZ was knocked down (si TAZ) and C2C12 cells in which TAZ was not knocked down (si Cont), after being cultured under differentiation condition for 72 hours, was analyzed.
Expression of MHC of C2C12 cells in which TAZ was knocked down (si TAZ) and C2C12 cells in which TAZ was not knocked down (si Cont), after being cultured under differentiation condition for 72 hours, was analyzed by immunoblotting. As a result, expression of MHC decreased in the case with only myostatin, whereas it recovered in the case with myostatin and IBS008738 (see FIG. 8C).

Balb/c ByJ mice = experiment: Suppression of dexamethasone-induced muscle atrophy; type: in vivo, mouse
Method: (1) A 25 mg/mL dexamethasone stock solution in DMSO was prepared. Three Balb/c ByJ mice (6 week, female) were intraperitoneally injected with 20 μL of the dexamethasone stock solution, each day for a week. As a control group, three other individuals were injected with 20 μL of DMSO. On day 9, 11 and 13, each group of the mice was injected with a solution prepared by dissolving 0.3 μL of 10 mM IBS008738 stock solution in 100 μL PBS, on one hindlimb muscle, and with 100 μL PBS on the other hindlimb muscle. The mice were sacrificed at day 14, and the muscle tissues were fixed and stained with hematoxylin and eosin (see FIG. 8D). It was observed that the muscle fibers of the mice administered with dexamethasone were shrinked.
(2) The cross section of the muscle fibers of the individual intraperitoneally injected with dexamethasone was stained with an anti-laminin antibody and observed. […] The cross-section area of muscle fibers (500 per individual) of the three mice was measured. As a result, the area of the individual injected with IBS008738 was greater than the area of the individual injected with DMSO (see FIG. 9F). The cross-section area of muscle fibers was analyzed with Image J software.

T1 sequence (Q9GZV5 whole entry): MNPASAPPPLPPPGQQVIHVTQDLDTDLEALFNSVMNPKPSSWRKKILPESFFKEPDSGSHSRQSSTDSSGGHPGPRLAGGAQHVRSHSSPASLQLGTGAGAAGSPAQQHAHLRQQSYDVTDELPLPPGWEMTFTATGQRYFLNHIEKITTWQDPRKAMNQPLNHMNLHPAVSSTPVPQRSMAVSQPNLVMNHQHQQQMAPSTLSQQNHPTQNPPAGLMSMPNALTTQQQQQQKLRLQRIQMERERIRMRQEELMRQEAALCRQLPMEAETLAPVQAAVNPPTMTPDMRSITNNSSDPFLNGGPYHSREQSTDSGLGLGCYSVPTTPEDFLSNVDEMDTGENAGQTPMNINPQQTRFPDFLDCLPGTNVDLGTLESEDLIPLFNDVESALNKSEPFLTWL

What does the source list for `Cc1ccc(-n2cnc(/N=C/N3CCOCC3)c2C(=O)c2ccccc2)cc1` [exemplary compound 1]?
gene transcription of CTGF compared with DMSO ([1]; 24 h and 72 h): no significant difference; Normarized mRNA abundance, CTGF ([1]; differentiation condition 24 h): 0.32 and 0.30 and 0.25; Normarized mRNA abundance, CTGF ([1]; differentiation condition 72 h): 1.76 and 2.01 and 2.04; degree of gene transcription of M-cadherin (M-cadherin; 24 h and 72 h): no increase; Normarized mRNA abundance, M-cadherin (M-cadherin; differentiation condition 24 h): 1.66 and 1.61 and 1.64; Normarized mRNA abundance, M-cadherin (M-cadherin; differentiation condition 72 h): 0.82 and 0.87 and 0.80; interaction of TAZ and MyoD compared with DMSO [2]: slightly promoted; muscle formation of the C2C12 cells (C2C12 cells): did not recover; cross-section area of muscle fibers compared with DMSO (Balb/c ByJ mice; dexamethasone mice, 500 fibers per individual, three mice): greater; shrinkage of muscle fibers compared with DMSO (Balb/c ByJ mice; dexamethasone mice, cross section stained with anti-laminin antibody): more suppressed; effect on muscle fibers (Balb/c ByJ mice; mice intraperitoneally injected with DMSO (no dexamethasone), IBS008738 into hindlimb muscle on day 9, 11 and 13, hematoxylin and eosin): No significant effect; shrinkage of muscle fibers (Balb/c ByJ mice; mice intraperitoneally injected with dexamethasone, IBS008738 into hindlimb muscle on day 9, 11 and 13, hematoxylin and eosin, day 14): partly suppressed
